These results are taken from PubChem BioAssay AID330 (DTP/NCI, 2004).

Where “and” joins values, the source holds several entries; their conditions need not be identical. Equal entries are not always repeated. Toxic doses and inconclusive results are not listed.

The assay concerns P388 leukemia ip, CD2F1 mice, survival T/C. Description: NCI In Vivo Anticancer Drug Screen. Data for tumor model P388 Leukemia (intraperitoneal) in CD2F1 (CDF1) mice. The note with it: endpoint: median survival time, higher = longer survival. Put shortly:
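Mice carrying the transplanted tumor received test compound or vehicle. Survival was recorded in each group, and the value is the treated-group measurement divided by that of the vehicle-treated control group.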

[1] abbreviates: dose: 50.0 mg/kg/injection, schedule: Q04DX003 (ip), vehicle: saline with Tween-80.
Where [2] appears, read: dose: 100.0 mg/kg/injection, schedule: Q04DX003 (ip), vehicle: saline with Tween-80.
Where [3] appears, read: dose: 200.0 mg/kg/injection, schedule: Q04DX003 (ip), vehicle: saline with Tween-80.
[4] abbreviates: dose: 60.0 mg/kg/injection, schedule: Q01DX005 (ip), vehicle: saline with Tween-80.
The mark [5] stands for this setting: dose: 100.0 mg/kg/injection, schedule: Q01DX009 (ip), vehicle: saline.
Setting [6] is: dose: 25.0 mg/kg/injection, schedule: Q01DX009 (ip), vehicle: saline with Tween-80.
Where [7] appears, read: dose: 50.0 mg/kg/injection, schedule: Q01DX009 (ip), vehicle: saline with Tween-80.
The mark [8] stands for this setting: dose: 100.0 mg/kg/injection, schedule: Q01DX001 (ip), vehicle: saline with Tween-80.
Where [9] appears, read: dose: 200.0 mg/kg/injection, schedule: Q01DX001 (ip), vehicle: saline with Tween-80.
The mark [10] stands for this setting: dose: 120.0 mg/kg/injection, schedule: Q01DX005 (ip), vehicle: saline with Tween-80.
Where [11] appears, read: dose: 50.0 mg/kg/injection, schedule: Q01DX009 (ip), vehicle: Klucel (hydroxypropylcellulose) (HPC).
The mark [12] stands for this setting: dose: 100.0 mg/kg/injection, schedule: Q01DX009 (ip), vehicle: Klucel (hydroxypropylcellulose) (HPC).

For `Nc1nc(N)c(N)c(N)n1`, the T/C under setting [1] is 98 % of control; the T/C under setting [2] was 104 % of control; the T/C under setting [3] is 97 % of control; the T/C (dose: 400.0 mg/kg/injection, schedule: Q04DX003 (ip), vehicle: saline with Tween-80) is 96 % of control.
As to `CC(=O)N/N=C/c1ccccc1[N+](=O)[O-]`, the T/C (dose: 12.5 mg/kg/injection, schedule: Q01DX009 (ip), vehicle: other) is 97 % of control; the T/C (dose: 25.0 mg/kg/injection, schedule: Q01DX009 (ip), vehicle: other) was 96 % of control; the T/C (dose: 50.0 mg/kg/injection, schedule: Q01DX009 (ip), vehicle: other) was 98 % of control; the T/C (dose: 100.0 mg/kg/injection, schedule: Q01DX009 (ip), vehicle: other) was 107 % of control.
With `O=C1c2ccccc2C(=O)c2c(NCCSCCO)ccc(NCCSCCO)c21`, the T/C was 92 % of control (dose: 16.0 mg/kg/injection, schedule: Q01DX009 (ip), vehicle: Klucel (hydroxypropylcellulose) (HPC)); 96 % of control (dose: 32.0 mg/kg/injection, schedule: Q01DX009 (ip), vehicle: Klucel (hydroxypropylcellulose) (HPC)); 89 % of control (dose: 64.0 mg/kg/injection, schedule: Q01DX009 (ip), vehicle: Klucel (hydroxypropylcellulose) (HPC)); 86 % of control (dose: 128.0 mg/kg/injection, schedule: Q01DX009 (ip), vehicle: Klucel (hydroxypropylcellulose) (HPC)).
As for `Cc1cc(-c2c(C)[nH]n(-c3nc4ccc(F)cc4s3)c2=O)n(-c2nc3ccc(F)cc3s2)n1`, the T/C (dose: 15.0 mg/kg/injection, schedule: Q01DX005 (ip), vehicle: saline with Tween-80) was 96 % of control; the T/C (dose: 30.0 mg/kg/injection, schedule: Q01DX005 (ip), vehicle: saline with Tween-80) was 95 % of control; the T/C under setting [4] was 100 % of control and 92 % of control.
Turning to `CC1OC(O[C@H]2C[C@](O)(C(=O)CO)Cc3c(O)c4c(c(O)c32)C(=O)c2c(OCc3ccccc3)cccc2C4=O)CC(N)C1O` (some centres not stated), the T/C (dose: 3.13 mg/kg/injection, schedule: Q04DX003 (ip), vehicle: water) is 118 % of control; the T/C (dose: 6.25 mg/kg/injection, schedule: Q04DX003 (ip), vehicle: distilled water + Tween-80) was 110 % of control; the T/C (dose: 6.25 mg/kg/injection, schedule: Q04DX003 (ip), vehicle: water) is 118 % of control; the T/C (dose: 12.5 mg/kg/injection, schedule: Q04DX003 (ip), vehicle: water) is 123 % of control; the T/C (dose: 25.0 mg/kg/injection, schedule: Q04DX003 (ip), vehicle: water) was 123 % of control.
Take `NCCc1ccccc1`: the T/C is 104 % of control (dose: 50.0 mg/kg/injection, schedule: Q01DX009 (ip), vehicle: saline) and 86 % of control under setting [5].
For `O=C1C=C(Sc2ccc3ccccc3c2)C(=O)c2ccccc21`, the T/C is 101 % of control (dose: 3.13 mg/kg/injection, schedule: Q01DX009 (ip), vehicle: saline with Tween-80); 105 % of control (dose: 6.25 mg/kg/injection, schedule: Q01DX009 (ip), vehicle: saline with Tween-80); 104 % of control (dose: 12.5 mg/kg/injection, schedule: Q01DX009 (ip), vehicle: saline with Tween-80); 95 % of control under setting [6]; 104 % of control under setting [7].
As to `CC1(C)CC(OP2(=O)NCCCO2)CC(C)(C)N1O` (configuration not stated), the T/C (dose: 27.5 mg/kg/injection, schedule: Q01DX001 (ip), vehicle: saline) was 150 % of control and the T/C (dose: 55.0 mg/kg/injection, schedule: Q01DX001 (ip), vehicle: saline) was 165 % of control.
Take `COc1cc(C(=O)NCCS(=O)(=O)O)cc(OC)c1OC`: the T/C runs as follows: under setting [5], 109 % of control; (dose: 200.0 mg/kg/injection, schedule: Q01DX009 (ip), vehicle: saline) 109 % of control; (dose: 400.0 mg/kg/injection, schedule: Q01DX009 (ip), vehicle: saline) 105 % of control.
For the molecule `CSCC(NP1(=O)SC(NN=C(C)C)=NC1(C)C)C(=O)O` (configuration not stated), the T/C was 106 % of control (dose: 60.0 mg/kg/injection, schedule: Q01DX005 (ip), vehicle: saline) and 107 % of control (dose: 120.0 mg/kg/injection, schedule: Q01DX005 (ip), vehicle: saline).
For the molecule `O=c1c2cc(O)ccc2oc2c(CO)ccc(NCCN3CCCC3)c12`, the T/C under setting [8] was 93 % of control; the T/C under setting [9] was 100 % of control; the T/C (dose: 400.0 mg/kg/injection, schedule: Q01DX001 (ip), vehicle: saline with Tween-80) was 106 % of control.
Turning to `CNC(=O)OCC1=C([Si](C)(C)C)C(=O)C(OC)=C(OC)C1=O`, the T/C by setting is: (dose: 50.0 mg/kg/injection, schedule: Q01DX005 (ip), vehicle: saline with Tween-80) 98 % of control; (dose: 100.0 mg/kg/injection, schedule: Q01DX005 (ip), vehicle: saline with Tween-80) 100 % of control.
`CCCCC(CC)OC(=O)c1cccc(C(=O)O)c1` (configuration not stated): the T/C by setting is: under setting [8], 115 % of control; under setting [9], 97 % of control.
With `CCn1c2ccc(N)cc2c2c3ncc4cccn4c3ccc21`, the T/C under setting [4] is 88 % of control and the T/C under setting [10] was 87 % of control.
Take `CCN(CC)Cc1c(C)[nH]c2c(ccc3c2ccc2c(=O)c(CN(CC)CC)c(C)[nH]c23)c1=O`: the T/C by setting is: under setting [11], 93 % of control; under setting [12], 91 % of control; (dose: 200.0 mg/kg/injection, schedule: Q01DX009 (ip), vehicle: Klucel (hydroxypropylcellulose) (HPC)) 96 % of control.
`O=C(Cl)c1ccccc1Sc1ccccc1`: the T/C was 95 % of control under setting [6]; 100 % of control (dose: 25.0 mg/kg/injection, schedule: Q04DX003 (ip), vehicle: saline with Tween-80); 90 % of control under setting [7]; 100 % of control under setting [1]; 100 % of control (dose: 100.0 mg/kg/injection, schedule: Q01DX009 (ip), vehicle: saline with Tween-80); 100 % of control under setting [2].
Regarding `Cc1ccc(C)c(NC(=O)CCC(=O)CC(=O)c2ccncc2)c1`, the T/C by setting is: under setting [4], 107 % of control; under setting [10], 107 % of control; (dose: 240.0 mg/kg/injection, schedule: Q01DX005 (ip), vehicle: saline with Tween-80) 105 % of control.
As for `CCCCCCCCCCCC(=O)OCCS(=O)(=O)CCOC(=O)CCCCCCCCCCC`, the T/C reads like this: (dose: 100.0 mg/kg/injection, schedule: Q04DX003 (ip), vehicle: Klucel (hydroxypropylcellulose) (HPC)) 104 % of control; (dose: 200.0 mg/kg/injection, schedule: Q04DX003 (ip), vehicle: Klucel (hydroxypropylcellulose) (HPC)) 103 % of control; (dose: 400.0 mg/kg/injection, schedule: Q04DX003 (ip), vehicle: Klucel (hydroxypropylcellulose) (HPC)) 99 % of control.
Turning to `NC(=O)c1ccc[n+](Cc2ccccc2)c1`, the T/C runs as follows: (dose: 12.5 mg/kg/injection, schedule: Q01DX009 (ip), vehicle: Klucel (hydroxypropylcellulose) (HPC)) 110 % of control; (dose: 25.0 mg/kg/injection, schedule: Q01DX009 (ip), vehicle: Klucel (hydroxypropylcellulose) (HPC)) 91 % of control; under setting [11], 112 % of control; under setting [12], 93 % of control.
In the case of `CCSC(=O)N1c2ccc(OC)cc2C=CC1C#N` (configuration not stated), the T/C reads like this: (dose: 44.0 mg/kg/injection, schedule: Q01DX009 (ip), vehicle: saline with Tween-80) 119 % of control; under setting [7], 105 % of control; (dose: 66.0 mg/kg/injection, schedule: Q01DX009 (ip), vehicle: saline with Tween-80) 119 % of control; under setting [2], 109 % of control; (dose: 150.0 mg/kg/injection, schedule: Q01DX009 (ip), vehicle: saline with Tween-80) 160 % of control; (dose: 200.0 mg/kg/injection, schedule: Q01DX009 (ip), vehicle: saline with Tween-80) 108 % of control. Besides, the T/C was 118 % of control under setting [3]; 124 % of control (dose: 266.0 mg/kg/injection, schedule: Q04DX003 (ip), vehicle: saline with Tween-80); 118 % of control (dose: 400.0 mg/kg/injection, schedule: Q01DX009 (ip), vehicle: saline with Tween-80); 96 % of control (dose: 800.0 mg/kg/injection, schedule: Q01DX009 (ip), vehicle: saline with Tween-80).
